Test results taken from PubChem BioAssay (NCI).
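Assay format: 96-well plates, 48-hour exposure. At the GI50, growth is halved. TGI denotes the concentration required for complete inhibition of growth.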

Tests used:
Test in all cases: NCI tumour cell line growth inhibition, 48 h; in the data active = GI50 below about 0.43 µM; inactive = the rest
BT-549 breast = test system: BT-549 breast
MDA-MB-435 = test system: MDA-MB-435
T-47D breast = test system: T-47D breast
MOLT-4 leukemia = test system: MOLT-4 leukemia
SK-OV-3 ovarian = test system: SK-OV-3 ovarian
RXF 393 renal = test system: RXF 393 renal
PC-3 prostate = test system: PC-3 prostate
OVCAR-3 ovarian = test system: OVCAR-3 ovarian
CCRF-CEM leukemia = test system: CCRF-CEM leukemia
OVCAR-8 ovarian = test system: OVCAR-8 ovarian

Clc1ccc(-c2nc(C(Cl)Cl)nc3cc(-c4ccccc4)nn23)cc1
2.01 µM: TGI (OVCAR-3 ovarian)
> 50 µM: TGI (BT-549 breast) | TGI (MDA-MB-435) | TGI (T-47D breast) | TGI (MOLT-4 leukemia) | TGI (PC-3 prostate) | TGI (CCRF-CEM leukemia) | TGI (OVCAR-8 ovarian)
inactive: GI50 (BT-549 breast) > 50 µM | GI50 (MDA-MB-435) 1.8 µM | GI50 (T-47D breast) 1.73 µM | GI50 (MOLT-4 leukemia) 1.74 µM | GI50 (SK-OV-3 ovarian) 1.38 µM | GI50 (RXF 393 renal) 0.813 µM | GI50 (PC-3 prostate) 1.74 µM | GI50 (OVCAR-3 ovarian) 0.925 µM | GI50 (CCRF-CEM leukemia) > 50 µM | GI50 (OVCAR-8 ovarian) 1.44 µM
1.87 µM: TGI (RXF 393 renal)
4.75 µM: TGI (SK-OV-3 ovarian)

C[n+]1cc2cc3c(cc2c2ccccc21)OCO3
14.4 µM: TGI (T-47D breast)
16.3 µM: TGI (BT-549 breast)
19.4 µM: TGI (OVCAR-3 ovarian)
inactive: GI50 (BT-549 breast) 2.95 µM | GI50 (MDA-MB-435) 5.32 µM | GI50 (T-47D breast) 2.95 µM | GI50 (MOLT-4 leukemia) 4.02 µM | GI50 (SK-OV-3 ovarian) 7.96 µM | GI50 (RXF 393 renal) 16.4 µM | GI50 (PC-3 prostate) 3.12 µM | GI50 (OVCAR-3 ovarian) 3.13 µM | GI50 (CCRF-CEM leukemia) 8.71 µM | GI50 (OVCAR-8 ovarian) 3.04 µM
26.4 µM: TGI (PC-3 prostate)
30.5 µM: TGI (OVCAR-8 ovarian)
21 µM: TGI (MDA-MB-435)
> 100 µM: TGI (MOLT-4 leukemia) | TGI (SK-OV-3 ovarian) | TGI (RXF 393 renal) | TGI (CCRF-CEM leukemia)

Cc1cccc2c(N=Nc3ccccc3[N+](=O)[O-])c(O)[nH]c12
21.8 µM: TGI (SK-OV-3 ovarian)
38.4 µM: TGI (PC-3 prostate)
21.9 µM: TGI (T-47D breast)
16.6 µM: TGI (RXF 393 renal)
> 74.1 µM: TGI (BT-549 breast)
> 100 µM: TGI (MDA-MB-435) | TGI (MOLT-4 leukemia)
30 µM: TGI (OVCAR-3 ovarian)
> 38.2 µM: TGI (OVCAR-8 ovarian)
> 43.6 µM: TGI (CCRF-CEM leukemia)

N=C1N=C(N)S/C1=C\c1ccc2ncccc2c1
inactive: GI50 (BT-549 breast) > 25 µM | GI50 (MDA-MB-435) > 25 µM | GI50 (T-47D breast) > 25 µM | GI50 (MOLT-4 leukemia) > 25 µM | GI50 (SK-OV-3 ovarian) > 25 µM | GI50 (RXF 393 renal) > 25 µM | GI50 (PC-3 prostate) > 25 µM | GI50 (OVCAR-3 ovarian) > 25 µM | GI50 (CCRF-CEM leukemia) > 25 µM | GI50 (OVCAR-8 ovarian) > 25 µM
> 25 µM: TGI (BT-549 breast) | TGI (MDA-MB-435) | TGI (T-47D breast) | TGI (MOLT-4 leukemia) | TGI (SK-OV-3 ovarian) | TGI (RXF 393 renal) | TGI (PC-3 prostate) | TGI (OVCAR-3 ovarian) | TGI (CCRF-CEM leukemia) | TGI (OVCAR-8 ovarian)

CC(=O)[O][Hg][CH2]C1(C)COC(C)([CH2][Hg][O]C(C)=O)CO1 (centres undefined)
3.64 µM: TGI (BT-549 breast)
3.14 µM: TGI (MOLT-4 leukemia)
31.8 µM: TGI (SK-OV-3 ovarian)
active: GI50 (CCRF-CEM leukemia) 0.306 µM
7.18 µM: TGI (MDA-MB-435)
37.5 µM: TGI (PC-3 prostate)
52.1 µM: TGI (OVCAR-8 ovarian)
7.08 µM: TGI (RXF 393 renal)
21.4 µM: TGI (T-47D breast)
0.0232 µM: TGI (OVCAR-3 ovarian)
inactive: GI50 (BT-549 breast) 1.76 µM | GI50 (MDA-MB-435) 2.72 µM | GI50 (T-47D breast) 2.94 µM | GI50 (MOLT-4 leukemia) 0.747 µM | GI50 (SK-OV-3 ovarian) 17.5 µM | GI50 (RXF 393 renal) 1.45 µM | GI50 (PC-3 prostate) 16.6 µM | GI50 (OVCAR-8 ovarian) 6.03 µM
1.72 µM: TGI (CCRF-CEM leukemia)

NC(=S)N/N=C/c1ccc(OC(=O)COc2ccccc2)cn1
> 100 µM: TGI (BT-549 breast) | TGI (MDA-MB-435) | TGI (T-47D breast) | TGI (MOLT-4 leukemia) | TGI (SK-OV-3 ovarian) | TGI (RXF 393 renal) | TGI (PC-3 prostate) | TGI (OVCAR-3 ovarian) | TGI (CCRF-CEM leukemia) | TGI (OVCAR-8 ovarian)
inactive: GI50 (BT-549 breast) 26.4 µM | GI50 (MDA-MB-435) 10.9 µM | GI50 (T-47D breast) 7.45 µM | GI50 (MOLT-4 leukemia) 2.53 µM | GI50 (SK-OV-3 ovarian) 40.9 µM | GI50 (RXF 393 renal) 5.34 µM | GI50 (PC-3 prostate) 5.34 µM | GI50 (OVCAR-3 ovarian) 2.17 µM | GI50 (CCRF-CEM leukemia) 1.58 µM | GI50 (OVCAR-8 ovarian) 3.26 µM

COc1ccc(Nc2ncc(-c3ccccc3)o2)cc1OC
> 19.5 µM: TGI (RXF 393 renal)
> 25 µM: TGI (BT-549 breast) | TGI (MDA-MB-435) | TGI (T-47D breast) | TGI (MOLT-4 leukemia) | TGI (SK-OV-3 ovarian) | TGI (PC-3 prostate) | TGI (OVCAR-3 ovarian) | TGI (CCRF-CEM leukemia) | TGI (OVCAR-8 ovarian)
inactive: GI50 (BT-549 breast) 18.6 µM | GI50 (MDA-MB-435) > 19.5 µM | GI50 (T-47D breast) 24.7 µM | GI50 (MOLT-4 leukemia) 13.6 µM | GI50 (SK-OV-3 ovarian) 12.7 µM | GI50 (RXF 393 renal) 6.03 µM | GI50 (PC-3 prostate) 17.6 µM | GI50 (OVCAR-3 ovarian) > 15.6 µM | GI50 (CCRF-CEM leukemia) 13.9 µM | GI50 (OVCAR-8 ovarian) 16.2 µM
